Laboratory results as given in ChEMBL document CHEMBL5465560, “Selectivity Literature for EUbOPEN Chemogenomic Library” (2024).

Key:
[1] = molecular target: Serine/threonine-protein kinase PAK 2 (Homo sapiens) (UniProt Q13177); test: Selectivity interaction (Ambit KINOMEscan and KiNATiv profiling in Jurkat cells) EUB0000090b PAK2; format: cell-based; conditions: at 1 µM
[2] = molecular target: T1, Dual specificity mitogen-activated protein kinase kinase 5 (Homo sapiens) (UniProt Q13163); test: Selectivity interaction (KinomeScan (DiscoverX)) EUB0000655a MAP2K5; conditions: at 10 µM
T1 sequence (whole entry): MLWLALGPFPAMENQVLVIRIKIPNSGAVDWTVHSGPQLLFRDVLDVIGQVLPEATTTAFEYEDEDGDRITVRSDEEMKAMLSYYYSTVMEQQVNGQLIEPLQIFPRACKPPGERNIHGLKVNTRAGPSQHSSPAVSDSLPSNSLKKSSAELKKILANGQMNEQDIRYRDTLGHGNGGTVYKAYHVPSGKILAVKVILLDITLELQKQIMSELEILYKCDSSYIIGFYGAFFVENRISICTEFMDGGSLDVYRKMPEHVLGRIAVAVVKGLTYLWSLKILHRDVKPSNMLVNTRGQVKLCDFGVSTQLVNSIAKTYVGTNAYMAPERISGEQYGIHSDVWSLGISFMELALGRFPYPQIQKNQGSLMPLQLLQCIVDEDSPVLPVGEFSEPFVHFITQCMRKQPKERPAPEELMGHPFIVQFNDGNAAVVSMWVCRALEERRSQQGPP

[3] = molecular target: T2, Hormonally up-regulated neu tumor-associated kinase (Homo sapiens) (UniProt P57058); test: Selectivity interaction (KinomeScan (DiscoverX)) EUB0001079a HUNK; conditions: at 1 µM
T2 sequence (whole entry): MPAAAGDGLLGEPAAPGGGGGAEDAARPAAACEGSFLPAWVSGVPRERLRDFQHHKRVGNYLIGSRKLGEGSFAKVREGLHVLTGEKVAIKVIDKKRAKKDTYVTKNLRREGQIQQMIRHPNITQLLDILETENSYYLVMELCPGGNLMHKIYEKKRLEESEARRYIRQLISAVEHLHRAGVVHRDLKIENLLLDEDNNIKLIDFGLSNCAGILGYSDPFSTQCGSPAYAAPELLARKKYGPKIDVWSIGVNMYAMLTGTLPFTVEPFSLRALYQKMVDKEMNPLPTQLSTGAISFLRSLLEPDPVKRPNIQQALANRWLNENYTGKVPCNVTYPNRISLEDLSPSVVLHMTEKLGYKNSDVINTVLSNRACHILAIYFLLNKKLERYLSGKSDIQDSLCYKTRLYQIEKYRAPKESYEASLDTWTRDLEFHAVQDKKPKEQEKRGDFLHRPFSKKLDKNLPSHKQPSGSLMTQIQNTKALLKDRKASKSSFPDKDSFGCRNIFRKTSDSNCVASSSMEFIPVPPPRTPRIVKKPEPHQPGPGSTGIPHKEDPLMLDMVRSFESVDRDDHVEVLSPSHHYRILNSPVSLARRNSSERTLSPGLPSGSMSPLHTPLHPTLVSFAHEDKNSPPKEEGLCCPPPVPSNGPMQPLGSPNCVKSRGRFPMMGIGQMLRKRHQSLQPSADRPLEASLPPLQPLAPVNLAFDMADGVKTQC

[4] = molecular target: TRAF2 and NCK-interacting protein kinase (Homo sapiens) (UniProt Q9UKE5); test: Selectivity interaction (KinomeScan (DiscoverX)) EUB0001079a TNIK; conditions: at 1 µM
Chain of TRAF2 and NCK-interacting protein kinase (Homo sapiens) (Q9UKE5 whole entry, looked up): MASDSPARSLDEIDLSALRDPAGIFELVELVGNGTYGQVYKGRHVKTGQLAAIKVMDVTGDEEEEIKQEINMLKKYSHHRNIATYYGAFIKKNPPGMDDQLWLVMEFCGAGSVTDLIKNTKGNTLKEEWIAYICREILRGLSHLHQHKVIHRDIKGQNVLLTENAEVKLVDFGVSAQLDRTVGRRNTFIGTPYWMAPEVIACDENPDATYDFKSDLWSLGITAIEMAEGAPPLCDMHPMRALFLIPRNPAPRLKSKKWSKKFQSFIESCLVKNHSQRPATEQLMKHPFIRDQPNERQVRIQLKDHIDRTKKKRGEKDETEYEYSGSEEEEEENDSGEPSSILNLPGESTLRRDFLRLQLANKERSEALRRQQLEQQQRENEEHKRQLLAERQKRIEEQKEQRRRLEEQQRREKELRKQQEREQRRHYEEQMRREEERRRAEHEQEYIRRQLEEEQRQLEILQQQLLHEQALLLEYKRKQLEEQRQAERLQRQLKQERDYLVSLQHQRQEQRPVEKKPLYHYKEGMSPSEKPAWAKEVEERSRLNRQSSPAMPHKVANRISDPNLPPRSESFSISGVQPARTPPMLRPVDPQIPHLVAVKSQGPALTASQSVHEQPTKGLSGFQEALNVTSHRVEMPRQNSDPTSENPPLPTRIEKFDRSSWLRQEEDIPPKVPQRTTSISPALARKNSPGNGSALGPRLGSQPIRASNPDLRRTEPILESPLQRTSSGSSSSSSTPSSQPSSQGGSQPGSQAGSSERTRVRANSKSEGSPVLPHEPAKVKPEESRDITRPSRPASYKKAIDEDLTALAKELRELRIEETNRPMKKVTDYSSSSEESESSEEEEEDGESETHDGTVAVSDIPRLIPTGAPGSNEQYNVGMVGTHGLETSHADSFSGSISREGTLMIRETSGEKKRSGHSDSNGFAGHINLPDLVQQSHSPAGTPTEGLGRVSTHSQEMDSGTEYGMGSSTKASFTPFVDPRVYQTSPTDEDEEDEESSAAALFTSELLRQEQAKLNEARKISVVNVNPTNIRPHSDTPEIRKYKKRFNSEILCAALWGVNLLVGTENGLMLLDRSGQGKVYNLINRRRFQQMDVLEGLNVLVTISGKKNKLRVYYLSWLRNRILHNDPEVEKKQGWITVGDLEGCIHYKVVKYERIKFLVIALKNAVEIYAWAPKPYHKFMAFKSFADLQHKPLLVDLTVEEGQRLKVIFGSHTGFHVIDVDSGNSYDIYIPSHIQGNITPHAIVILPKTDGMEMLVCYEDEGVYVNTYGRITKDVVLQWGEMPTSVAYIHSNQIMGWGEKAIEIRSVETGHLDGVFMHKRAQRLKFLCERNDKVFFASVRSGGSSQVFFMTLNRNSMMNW

[5] = molecular target: Mitogen-activated protein kinase 7 (Homo sapiens) (UniProt Q13164); test: Selectivity interaction (KinomeScan (DiscoverX)) EUB0001619a MAPK7; conditions: at 1 µM
Chain of Mitogen-activated protein kinase 7 (Homo sapiens) (Q13164 2-816 limits assumed): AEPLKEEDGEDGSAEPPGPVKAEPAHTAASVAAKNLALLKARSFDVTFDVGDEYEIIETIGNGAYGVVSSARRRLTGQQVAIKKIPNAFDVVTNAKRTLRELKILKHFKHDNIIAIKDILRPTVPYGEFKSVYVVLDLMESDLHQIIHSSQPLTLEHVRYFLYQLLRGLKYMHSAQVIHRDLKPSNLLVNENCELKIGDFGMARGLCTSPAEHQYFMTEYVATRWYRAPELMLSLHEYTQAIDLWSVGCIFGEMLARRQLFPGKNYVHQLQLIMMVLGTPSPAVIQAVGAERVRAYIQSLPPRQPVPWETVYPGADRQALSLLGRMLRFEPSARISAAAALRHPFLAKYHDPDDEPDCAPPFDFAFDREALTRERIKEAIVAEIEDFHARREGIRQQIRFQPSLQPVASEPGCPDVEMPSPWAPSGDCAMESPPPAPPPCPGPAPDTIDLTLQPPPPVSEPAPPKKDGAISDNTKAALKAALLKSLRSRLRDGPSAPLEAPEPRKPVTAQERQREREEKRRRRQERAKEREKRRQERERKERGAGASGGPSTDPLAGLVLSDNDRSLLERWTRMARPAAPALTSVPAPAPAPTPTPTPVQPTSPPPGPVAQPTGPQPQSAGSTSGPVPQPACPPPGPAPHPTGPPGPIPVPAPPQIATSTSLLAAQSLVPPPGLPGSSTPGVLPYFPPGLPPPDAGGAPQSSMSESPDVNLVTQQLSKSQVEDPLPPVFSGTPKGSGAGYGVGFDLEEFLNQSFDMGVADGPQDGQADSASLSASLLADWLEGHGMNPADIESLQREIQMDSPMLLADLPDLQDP

[6] = molecular target: Ribosomal protein S6 kinase alpha-4 (Homo sapiens) (UniProt O75676); test: Selectivity interaction (KinomeScan (DiscoverX)) EUB0000045b RPS6KA4
Chain of Ribosomal protein S6 kinase alpha-4 (Homo sapiens) (O75676 whole entry, looked up): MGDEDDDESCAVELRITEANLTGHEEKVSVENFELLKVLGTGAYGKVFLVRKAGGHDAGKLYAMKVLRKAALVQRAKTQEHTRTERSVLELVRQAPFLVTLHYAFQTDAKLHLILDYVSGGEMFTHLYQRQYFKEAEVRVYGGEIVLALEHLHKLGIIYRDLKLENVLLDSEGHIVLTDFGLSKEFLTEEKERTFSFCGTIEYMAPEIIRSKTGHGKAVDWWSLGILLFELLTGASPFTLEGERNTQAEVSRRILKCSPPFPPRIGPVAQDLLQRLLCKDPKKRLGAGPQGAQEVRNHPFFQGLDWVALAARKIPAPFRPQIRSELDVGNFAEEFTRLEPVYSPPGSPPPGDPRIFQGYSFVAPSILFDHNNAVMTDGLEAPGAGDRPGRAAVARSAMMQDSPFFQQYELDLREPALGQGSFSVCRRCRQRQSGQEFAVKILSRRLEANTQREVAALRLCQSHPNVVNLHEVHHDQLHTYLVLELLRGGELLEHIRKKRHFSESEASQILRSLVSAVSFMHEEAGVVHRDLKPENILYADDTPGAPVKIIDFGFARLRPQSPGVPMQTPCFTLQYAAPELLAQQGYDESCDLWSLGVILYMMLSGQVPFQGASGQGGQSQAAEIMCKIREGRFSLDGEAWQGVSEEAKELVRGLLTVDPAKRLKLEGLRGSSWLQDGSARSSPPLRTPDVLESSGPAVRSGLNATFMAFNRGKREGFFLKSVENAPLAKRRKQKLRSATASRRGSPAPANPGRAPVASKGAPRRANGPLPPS

[7] = molecular target: T3, Tyrosine-protein kinase Tec (Homo sapiens) (UniProt P42680); test: Selectivity interaction (KinomeScan (DiscoverX)) EUB0000045b TEC
T3 sequence (whole entry): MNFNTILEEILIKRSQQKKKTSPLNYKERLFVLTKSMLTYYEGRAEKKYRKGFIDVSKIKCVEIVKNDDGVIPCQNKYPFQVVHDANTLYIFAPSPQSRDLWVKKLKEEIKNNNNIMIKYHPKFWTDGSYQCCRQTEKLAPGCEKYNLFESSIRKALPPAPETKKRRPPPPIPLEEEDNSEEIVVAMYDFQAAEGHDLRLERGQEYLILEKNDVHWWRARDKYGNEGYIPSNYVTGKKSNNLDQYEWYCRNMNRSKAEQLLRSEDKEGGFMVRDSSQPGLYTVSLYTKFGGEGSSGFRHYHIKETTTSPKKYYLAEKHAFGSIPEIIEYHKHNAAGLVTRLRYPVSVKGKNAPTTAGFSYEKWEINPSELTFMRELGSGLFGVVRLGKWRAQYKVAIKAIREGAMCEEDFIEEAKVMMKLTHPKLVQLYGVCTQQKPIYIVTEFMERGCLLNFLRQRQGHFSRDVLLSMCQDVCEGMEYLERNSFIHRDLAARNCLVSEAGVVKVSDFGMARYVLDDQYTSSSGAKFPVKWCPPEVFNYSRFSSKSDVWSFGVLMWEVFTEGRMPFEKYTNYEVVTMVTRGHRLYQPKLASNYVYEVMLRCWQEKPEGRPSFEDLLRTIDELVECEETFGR

[8] = molecular target: Dual specificity tyrosine-phosphorylation-regulated kinase 1A (Homo sapiens, UniProt Q13627); test: Selectivity interaction (KinomeScan (DiscoverX)) EUB0001550a DYRK1A; conditions: at 1 µM
[9] = molecular target: T4, Serine/threonine-protein kinase Sgk1 (Homo sapiens) (UniProt O00141); test: Selectivity interaction (Kinase screening (Nanosyn)) EUB0000604a SGK1
T4 sequence (whole entry): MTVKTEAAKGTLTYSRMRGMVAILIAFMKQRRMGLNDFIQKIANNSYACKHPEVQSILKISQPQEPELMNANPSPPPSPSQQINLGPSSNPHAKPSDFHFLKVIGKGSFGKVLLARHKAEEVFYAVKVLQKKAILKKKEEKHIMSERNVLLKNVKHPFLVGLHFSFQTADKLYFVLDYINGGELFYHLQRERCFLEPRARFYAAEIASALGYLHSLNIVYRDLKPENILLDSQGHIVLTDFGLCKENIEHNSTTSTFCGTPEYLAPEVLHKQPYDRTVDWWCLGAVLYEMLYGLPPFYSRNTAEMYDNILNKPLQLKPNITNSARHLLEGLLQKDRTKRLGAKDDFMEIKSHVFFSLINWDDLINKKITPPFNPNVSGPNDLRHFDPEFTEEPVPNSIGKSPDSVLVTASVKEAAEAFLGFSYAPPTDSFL

Chain of Serine/threonine-protein kinase PAK 2 (Homo sapiens) (Q13177 whole entry): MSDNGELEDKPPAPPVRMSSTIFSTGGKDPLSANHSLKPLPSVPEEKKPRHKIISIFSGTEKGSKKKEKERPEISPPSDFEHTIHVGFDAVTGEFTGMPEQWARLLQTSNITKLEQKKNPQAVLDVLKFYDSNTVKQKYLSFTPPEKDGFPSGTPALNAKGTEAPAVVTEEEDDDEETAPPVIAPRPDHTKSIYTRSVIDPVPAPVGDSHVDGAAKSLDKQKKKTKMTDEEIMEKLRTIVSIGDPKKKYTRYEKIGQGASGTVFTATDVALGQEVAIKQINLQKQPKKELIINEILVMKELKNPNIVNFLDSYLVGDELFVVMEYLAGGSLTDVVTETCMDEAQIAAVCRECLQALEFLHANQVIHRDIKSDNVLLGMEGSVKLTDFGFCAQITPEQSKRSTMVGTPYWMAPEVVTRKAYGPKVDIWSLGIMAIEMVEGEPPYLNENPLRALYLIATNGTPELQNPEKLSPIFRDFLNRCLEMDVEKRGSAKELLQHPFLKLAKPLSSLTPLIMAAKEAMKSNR

`CN(C)C/C=C/C(=O)Nc1ccc(C(=O)N2CCCC(Nc3ncc(Cl)c(-c4c[nH]c5ccccc45)n3)C2)cc1` (stereo unspecified) was tested. Which % of control [1] did it give?
Its % of control is 84%.

Which % of control [2] does the source give for `CN(C)CCOc1ccc(-c2nc(-c3ccncc3)c(-c3ccc4c(c3)CC/C4=N\O)[nH]2)cc1` here?
The % of control was 22%.

With `Nc1cnc(N2CCc3cc(S(=O)(=O)Nc4c(F)cc(Cl)cc4F)cc(N4CCCC4=O)c32)nc1` [TP-020n] as the compound, how does the % of control [3] read?
Its % of control is 99%.

What about the % of control [4] of the same compound?
Its % of control is 100%.

Which % of control [5] does the source give for `N#Cc1cccc(-c2c[nH]c3ncnc(N4CCOCC4)c23)c1` here?
The % of control was 100%.

`C=CC(=O)Nc1cc(-n2c(=O)ccc3cnc4ccc(-c5ccc(NS(C)(=O)=O)cc5)cc4c32)ccc1C` was tested. Which % of control ([6]; at 1 µM) did it give?
Its % of control is 100%.

What about the % of control ([6]; at 10 µM) of the same compound?
Its % of control is 100%.

And the % of control ([7]; at 1 µM)?
Its % of control is 27%.

And the % of control ([7]; at 10 µM)?
The % of control was 4.2%.

Which % of control [8] does the source give for `CN(C)CC#Cc1ccc2[nH]c3c(c2c1)-c1nc(N)ncc1CCC3` here?
Its % of control is 9.9%.

Which % of inhibition [9] does the source give for `Cc1cnc(Nc2ccc(F)cc2Cl)nc1-c1c[nH]c(C(=O)N[C@H](CO)c2cccc(Cl)c2)c1` here?
The % of inhibition was 15%.
